According to patent US20060069132A1, “Azolecarboxamide herbicides” (priority 2004, published 2006):

Key:
velvetleaf [1] = assay: Test B pre-/postemergence herbicide test; type: in vivo, Abutilon theophrasti; settings: for Plant response rating, Velvetleaf: preemergence; for Velvetleaf plant response rating: postemergence, visual rating, scale 0 (no effect) to 100 (complete control)
Outline: (§1)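 Visual rating, 0 (no effect) to 100 (complete control), versus untreated controls after 13–15 d in greenhouse. Pre- and postemergence applications (postemergence plants 2–18 cm, 1–4 leaves); flooded paddy arm at 2-leaf stage. Compounds in non-phytotoxic solvent plus surfactant.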

lambsquarters = assay: Test B pre-/postemergence herbicide test; type: in vivo, Chenopodium album; settings: for Plant response rating, Lambsquarters: preemergence; for Lambsquarters plant response rating: postemergence, visual rating, scale 0 (no effect) to 100 (complete control)
Outline: as §1

large crabgrass [2] = assay: Test A pre-/postemergence herbicide test; type: in vivo, Digitaria sanguinalis
Outline: (§2)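 Visual injury scores on a 0–100 scale (100 = complete control) taken about ten days post-treatment in greenhouse against untreated controls; dash means no result. Treatments: preemergence soil spray and postemergence spray to runoff on one- to two-leaf plants 2 to 10 cm tall, surfactant-containing formulation.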

rice [3] = assay: Test B pre-/postemergence herbicide test; type: in vivo, Oryza sativa; settings: preemergence
Outline: as §1

morningglory [4] = assay: Test B pre-/postemergence herbicide test; type: in vivo, Ipomoea coccinea; settings: for Plant response rating, Morningglory: preemergence; for Morningglory plant response rating: postemergence, visual rating, scale 0 (no effect) to 100 (complete control)
Outline: (§3)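 Flooded paddy rice and barnyardgrass were treated at the 2-leaf stage; upland plantings received compound either on sown seed or on 1- to 4-leaf seedlings. All were kept 13–15 days in a greenhouse and scored visually, 0–100, relative to untreated plants.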

large crabgrass [5] = assay: Test B pre-/postemergence herbicide test; type: in vivo, Digitaria sanguinalis; settings: for Plant response rating, Crabgrass, Large: preemergence; for Crabgrass, Large plant response rating: postemergence, visual rating, scale 0 (no effect) to 100 (complete control)
Outline: as §1

redroot pigweed = assay: Test A pre-/postemergence herbicide test; type: in vivo, Amaranthus retroflexus
Outline: as §2

barnyardgrass [6] = assay: Test B pre-/postemergence herbicide test; type: in vivo, Echinochloa crus-galli; settings: for Plant response rating, Barnyardgrass: preemergence; for Barnyardgrass plant response rating: postemergence, visual rating, scale 0 (no effect) to 100 (complete control)
Outline: as §3

morningglory [7] = assay: Test A pre-/postemergence herbicide test; type: in vivo, Ipomoea spp.
Outline: as §2

cocklebur = assay: Test B pre-/postemergence herbicide test; type: in vivo, Xanthium strumarium; settings: for Plant response rating, Cocklebur: preemergence; for Cocklebur plant response rating: postemergence, visual rating, scale 0 (no effect) to 100 (complete control)
Outline: as §3

[8] = test system: small flower umbrella sedge; assay: Test B flooded paddy test; type: in vivo, Cyperus difformis; settings: 1000 g ai/ha, visual rating, scale 0 to 100 (0 no effect, 100 complete control), 13 to 15 days
Outline: (§4)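 After treating 2-leaf paddy plants or 2–18 cm postemergence plants (1 to 4 leaves) with formulated chemical, researchers kept them in a greenhouse for 13–15 days. Effects were judged visually versus controls: 0 indicates none, 100 total control.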

pigweed = assay: Test B pre-/postemergence herbicide test; type: in vivo, Amaranthus retroflexus; settings: for Plant response rating, Pigweed: preemergence; for Pigweed plant response rating: postemergence, visual rating, scale 0 (no effect) to 100 (complete control)
Outline: as §1

rice [9] = assay: Test B flooded paddy test; type: in vivo, Oryza sativa; settings: 1000 g ai/ha, visual rating, scale 0 to 100 (0 no effect, 100 complete control), 13 to 15 days
Outline: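 Read-out: visual comparison with controls, scored 0 to 100, where 100 means complete control and 0 no effect. Formulated chemicals were applied postemergence to plants 2–18 cm tall (1- to 4-leaf), or to flooded-paddy plants at the 2-leaf stage, then held 13 to 15 days under glass.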

barnyardgrass [10] = assay: Test A pre-/postemergence herbicide test; type: in vivo, Echinochloa crus-galli
Outline: as §2

barnyardgrass [11] = assay: Test B flooded paddy test; type: in vivo, Echinochloa crus-galli; settings: 1000 g ai/ha, visual rating, scale 0 to 100 (0 no effect, 100 complete control), 13 to 15 days
Outline: as §4

corn = assay: Test B pre-/postemergence herbicide test; type: in vivo, Zea mays; settings: for Plant response rating, Corn: preemergence; for Corn plant response rating: postemergence, visual rating, scale 0 (no effect) to 100 (complete control)
Outline: as §1

ducksalad = assay: Test B flooded paddy test; type: in vivo, Heteranthera limosa; settings: 1000 g ai/ha, visual rating, scale 0 to 100 (0 no effect, 100 complete control), 13 to 15 days
Outline: as §4

wild oat = assay: Test B postemergence herbicide test; type: in vivo, Avena fatua; settings: postemergence, visual rating, scale 0 (no effect) to 100 (complete control)
Outline: as §4

velvetleaf [12] = assay: Test A pre-/postemergence herbicide test; type: in vivo, Abutilon theophrasti
Outline: as §2

giant foxtail [13] = assay: Test A pre-/postemergence herbicide test; type: in vivo, Setaria faberi
Outline: as §2

blackgrass = assay: Test B postemergence herbicide test; type: in vivo, Alopecurus myosuroides; settings: postemergence, visual rating, scale 0 (no effect) to 100 (complete control)
Outline: as §4

wheat = assay: Test B postemergence herbicide test; type: in vivo, Triticum aestivum; design: key to Wheat plant response rating: 0 = no effect, 100 = complete control; settings: postemergence, 500 g ai/ha; visual rating, scale 0 (no effect) to 100 (complete control)
Outline: as §4

Surinam grass = assay: Test B pre-/postemergence herbicide test; type: in vivo, Urochloa decumbens; settings: for Plant response rating, Surinam Grass: preemergence; for Surinam Grass plant response rating: postemergence, visual rating, scale 0 (no effect) to 100 (complete control)
Outline: as §1

giant foxtail [14] = assay: Test B pre-/postemergence herbicide test; type: in vivo, Setaria faberi; settings: for Plant response rating, Foxtail, Giant: preemergence; for Foxtail, Giant plant response rating: postemergence, visual rating, scale 0 (no effect) to 100 (complete control)
Outline: as §1

[15] = 500 g ai/ha, visual rating 0-100, 0 no effect, 100 complete control
[16] = 125 g ai/ha, 0 to 100 scale, 0 is no effect, 100 is complete control
[17] = Postemergence, 500 g ai/ha, 0 to 100 scale, 0 no effect, 100 complete control
[18] = Postemergence, 2000 g ai/ha, 0 to 100 scale, 0 no effect, 100 complete control
[19] = Preemergence, 500 g ai/ha, visual rating, 0 to 100 scale (0 no effect, 100 complete control)
[20] = Preemergence, 2000 g ai/ha, visual rating, 0 to 100 scale (0 no effect, 100 complete control)
[21] = preemergence, 500 g ai/ha, visual injury, 0 to 100 scale (0 no effect, 100 complete control)

With `CCn1nc(C(C)(C)C)cc1C(=O)Nc1nccc(OC)n1` [Compound 165] the “Plant response rating, Velvetleaf” value (velvetleaf [1]; [15]) was 0, the “Velvetleaf plant response rating” value (velvetleaf [1]; 125 g ai/ha) was 0 and the “Velvetleaf plant response rating” value (velvetleaf [1]; 500 g ai/ha) was 0. For the same compound, the “Plant response rating, Velvetleaf” value (velvetleaf [1]; [16]) was 0, the “Plant response rating, Lambsquarters” value (lambsquarters; [15]) was 0 and the “Lambsquarters plant response rating” value (lambsquarters; 125 g ai/ha) was 0. The “Lambsquarters plant response rating” value (lambsquarters; 500 g ai/ha) was 0, the “Plant response rating, Lambsquarters” value (lambsquarters; [16]) was 0 and the “Crabgrass, Large plant response rating” value (large crabgrass [2]; [17]) was 0. For the same compound, the “Plant response rating, Crabgrass, Large” value (large crabgrass [2]; [18]) was 0, the “Crabgrass, Large plant response rating” value (large crabgrass [2]; [19]) was 0 and the “Crabgrass, Large plant response rating” value (large crabgrass [2]; [20]) was 0. For the same compound, the “Plant response rating, Rice” value (rice [3]; [15]) was 0, the “Plant response rating, Rice” value (rice [3]; [16]) was 0 and the “Plant response rating, Morningglory” value (morningglory [4]; [15]) was 0. For the same compound, the “Morningglory plant response rating” value (morningglory [4]; 125 g ai/ha) was 0, the “Morningglory plant response rating” value (morningglory [4]; 500 g ai/ha) was 0 and the “Plant response rating, Morningglory” value (morningglory [4]; [16]) was 0. The “Plant response rating, Crabgrass, Large” value (large crabgrass [5]; [15]) was 0, the “Crabgrass, Large plant response rating” value (large crabgrass [5]; 125 g ai/ha) was 0 and the “Crabgrass, Large plant response rating” value (large crabgrass [5]; 500 g ai/ha) was 0. The “Plant response rating, Crabgrass, Large” value (large crabgrass [5]; [16]) was 0, the “Pigweed plant response rating” value (redroot pigweed; [17]) was 0 and the “Plant response rating, Pigweed” value (redroot pigweed; [18]) was 5. For the same compound, the “Pigweed plant response rating” value (redroot pigweed; [20]) was 20, the “Pigweed plant response rating” value (redroot pigweed; [21]) was 0 and the “Plant response rating, Barnyardgrass” value (barnyardgrass [6]; [15]) was 0. For the same compound, the “Barnyardgrass plant response rating” value (barnyardgrass [6]; 125 g ai/ha) was 0, the “Barnyardgrass plant response rating” value (barnyardgrass [6]; 500 g ai/ha) was 0 and the “Plant response rating, Barnyardgrass” value (barnyardgrass [6]; [16]) was 0. For the same compound, the “Morningglory plant response rating” value (morningglory [7]; [17]) was 5, the “Plant response rating, Morningglory” value (morningglory [7]; [18]) was 5 and the “Morningglory plant response rating” value (morningglory [7]; [19]) was 0. The “Morningglory plant response rating” value (morningglory [7]; [20]) was 0, the “Plant response rating, Cocklebur” value (cocklebur; [15]) was 0 and the “Cocklebur plant response rating” value (cocklebur; 125 g ai/ha) was 0. For the same compound, the “Cocklebur plant response rating” value (cocklebur; 500 g ai/ha) was 0, the “Plant response rating, Cocklebur” value (cocklebur; [16]) was 0 and the “Sedge, Umbrella plant response rating” value [8] was 0. For the same compound, the “Plant response rating, Pigweed” value (pigweed; [15]) was 0, the “Pigweed plant response rating” value (pigweed; 125 g ai/ha) was 0 and the “Pigweed plant response rating” value (pigweed; 500 g ai/ha) was 0. The “Plant response rating, Pigweed” value (pigweed; [16]) was 0, the “Rice plant response rating” value (rice [9]) was 0 and the “Barnyardgrass plant response rating” value (barnyardgrass [10]; [17]) was 0. The “Plant response rating, Barnyardgrass” value (barnyardgrass [10]; [18]) was 0, the “Barnyardgrass plant response rating” value (barnyardgrass [10]; [19]) was 0 and the “Barnyardgrass plant response rating” value (barnyardgrass [10]; [20]) was 0. For the same compound, the “Barnyardgrass plant response rating” value (barnyardgrass [11]) was 0, the “Plant response rating, Corn” value (corn; [15]) was 0 and the “Corn plant response rating” value (corn; 125 g ai/ha) was 0. For the same compound, the “Corn plant response rating” value (corn; 500 g ai/ha) was 0, the “Plant response rating, Corn” value (corn; [16]) was 0 and the “Ducksalad plant response rating” value (ducksalad) was 0. For the same compound, the “Oat, Wild plant response rating” value (wild oat; 125 g ai/ha) was 0, the “Oat, Wild plant response rating” value (wild oat; 500 g ai/ha) was 0 and the “Velvetleaf plant response rating” value (velvetleaf [12]; [17]) was 10. For the same compound, the “Plant response rating, Velvetleaf” value (velvetleaf [12]; [18]) was 20, the “Velvetleaf plant response rating” value (velvetleaf [12]; [20]) was 5 and the “Velvetleaf plant response rating” value (velvetleaf [12]; [21]) was 0. For the same compound, the “Foxtail, Giant plant response rating” value (giant foxtail [13]; [17]) was 0, the “Plant response rating, Foxtail, Giant” value (giant foxtail [13]; [18]) was 0 and the “Foxtail, Giant plant response rating” value (giant foxtail [13]; [19]) was 0. The “Foxtail, Giant plant response rating” value (giant foxtail [13]; [20]) was 0, the “Blackgrass plant response rating” value (blackgrass; 125 g ai/ha) was 0 and the “Blackgrass plant response rating” value (blackgrass; 500 g ai/ha) was 0. For the same compound, the “Wheat plant response rating” value (wheat) was 0, the “Plant response rating, Surinam Grass” value (Surinam grass; [15]) was 0 and the “Surinam Grass plant response rating” value (Surinam grass; 125 g ai/ha) was 0. The “Surinam Grass plant response rating” value (Surinam grass; 500 g ai/ha) was 0, the “Plant response rating, Surinam Grass” value (Surinam grass; [16]) was 0 and the “Plant response rating, Foxtail, Giant” value (giant foxtail [14]; [15]) was 0. The “Foxtail, Giant plant response rating” value (giant foxtail [14]; 125 g ai/ha) was 0, the “Foxtail, Giant plant response rating” value (giant foxtail [14]; 500 g ai/ha) was 0 and the “Plant response rating, Foxtail, Giant” value (giant foxtail [14]; [16]) was 0.
